Patent publication US9239334B2, “Fatty acid C16: 1N7-palmitoleate a lipokine and biomarker for metabolic status” (PRESIDENT AND FELLOWS OF HARVARD COLLEGE, priority 2008, dated 2016)
Entries after “also recorded” stand apart in the source; their conditions may differ.

Key:
[1] = tested on: insulin receptor signaling in muscle tissue; experiment: Insulin signaling in muscle of lipid-infused mice (immunoblotting); type: in vivo; details: fatty acid:palmitoleate infusion 3.3 μl/min
Source text: FIGS. 7A-7G show data on the regulation of insulin signaling and glucose metabolism by palmitoleate. FIG. 7A is the basal and insulin-stimulated phosphorylation of insulin receptor (IR), insulin receptor substrate-1 (IRS-1) and -2 (IRS-2) and AKT in liver of mice infused with vehicle (Veh), TG:palmitoleate (C16:1n7) or TG:palmitate (C16). Representative blots are shown and quantifications on the right are averaged results of three mice in each treatment group. […] Representative blots are shown and quantifications on the right are averaged results of three mice in each treatment group.
The left panel presents the insulin-stimulated phosphorylation of insulin receptor and AKT in liver of mice infused with vehicle or palmitoleate. […] Mice were infused with vehicle or palmitoleate at 3.3 μl/min for six hrs, and insulin (1 U/Kg) was injected through the infusing tubing. Three minutes after insulin injection, tissues were collected and immunoblotting analyses were performed.
The present invention also provides for the regulation of insulin action by increased circulating palmitoleate. To study whether palmitoleate regulates systemic metabolic responses, lipid infusions were administered in conscious mice. Lipid infusion has been used widely to investigate the relationship between plasma FFAs and insulin resistance, but almost all studies using this protocol utilized preparations of natural lipid products containing a variety of fatty acids. Kim et al., 114 J. Clin. Invest. 823-27 (2004); Kim et al., 277 J. Biol. Chem. 32915-22 (2002); Yu et al., 277 J. Biol. Chem. 50230-36 (2002). […]
(§1) Samples of 200 μl serum were collected using heparin-coated glass tubes and spun at 13,000 g in a microcentrifuge to separate the plasma. […] Tissue protein lysates was separated with SDS-PAGE gels and phosphorylated or total proteins were detected with the following antibodies: phospho AKT Serine 473, AKT, insulin receptor, phospho-tyrosine (Santa Cruz Biotech.); IRS-1 and IRS-2 (Upstate); phospho-GSK and GSK (Cell Signaling Tech.); phospho-insulin receptor from (Calbiocbem). […]

[2] = tested on: SCD-1 promoter; experiment: SCD-1 promoter-driven luciferase reporter in FAO hepatoma cells; type: cell-based, murine
Description: This possibility was tested using several highly sensitive assays to probe the functional profile and activities of plasma lipids. SCD-1 was chosen as a target because it was determined previously that the suppression of hepatic SCD-1 activity is a major alteration in FABP-deficient mice under diet-induced or genetic obesity. Cao et al., 2006; Maeda et al., 2005. Hepatic SCD-1 expression is regulated by a variety of hormones and nutritional factors such as insulin, glucose, and polyunsaturated fatty acids (PUFAs). Ntambi & Miyazaki, 43 Prog. Lipid Res. 91-104 (2004). […] Chu et al., 26 Mol. Cell Biol. 6786-98 (2006); Ntambi, 40 J. Lipid Res. 1549-58 (1999). The 1.5 kb murine SCD-1 promoter was placed in front of a luciferase reporter and inserted into an adenovirus construct. FAO rat hepatoma cells infected with this adenovirus verified the responsiveness of this reporter to PUFA, consistent with previous observations (FIG. 15). Because this assay system was adapted to a microplate format, very small amounts of lipids were required for experimentation. This system allowed direct testing for the effects of lipids extracted from plasma of WT and FABP-deficient animals.
Lipids were extracted from whole plasma and applied to liver cells expressing the SCD-1 promoter reporter gene. […] To control for any difference in the amount of lipids extracted from plasma and to mimic the in vivo regulation of SCD-1 expression, mixtures of FFAs were generated with the same molar ratio detected in WT or FABP-deficient plasma lipids using the major fatty acids listed in FIG. 2C. […]
as §1

[3] = tested on: C2C12 cells; experiment: Glucose uptake in C2C12 myotubes; type: cell-based
Source text: FIG. 3H is the glucose uptake in C2C12 myotubes treated with insulin or palmitoleate. Top panel is immunoblotting of C2C12 cell lysates treated with insulin or palmitoleate using anti-Glut1 or Glut4 antibodies. *: p<0.05.
The effect of C16:1n7-palmitoleate on muscle insulin signaling was explored by pre-treating C2C12 myotubes with either palmitate or palmitoleate overnight and then stimulating the cells with insulin. […] Conversely, C16:1n7-palmitoleate had little effect on its own in this in vitro setting (FIG. 3G). When cells were co-treated with both palmitate and palmitoleate, however, palmitoleate rescued the palmitate-induced reduction in insulin-stimulated AKT phosphorylation. […] The mechanism of this increase is not, apparently, associated with alterations in the absolute levels of Glut1 and Glut4 proteins (FIG. 3H).

Question: How did the “muscle insulin signaling (insulin receptor and AKT activation)” value [1] turn out when `CCCCCC/C=C\CCCCCCCC(=O)O` [palmitoleate, C16:1n7-palmitoleate] was run?
Answer: The value was “enhanced”.

Question: And the “effect of palmitate on SCD-1 promoter” value ([2]; cells treated with a mixture of palmitate and palmitoleate)?
Answer: The value was “antagonized”.

Question: What about the “SCD-1 promoter-driven reporter activity” value ([2]; hepatocytes (FAO) treated with a single fatty acid, 300 μM) of the same compound?
Answer: The value was “negatively regulated; also recorded: comparable to arachidonic acid; also recorded: suppressed”.

Question: And the glucose uptake [3]?
Answer: The glucose uptake was “stimulated glucose uptake into C2C12 cells to a level similar to insulin”.
